To fix the notation:
T1: Ncad-Fc protein (chicken N-cadherin ectodomain fused to the Fc fragment of mouse IgG2b) (Gallus gallus, UniProt P10288)
T1 construct: chicken N-cadherin ectodomain fused to the Fc fragment of mouse IgG2b
T1 sequence (P10288 165-729 limits assumed): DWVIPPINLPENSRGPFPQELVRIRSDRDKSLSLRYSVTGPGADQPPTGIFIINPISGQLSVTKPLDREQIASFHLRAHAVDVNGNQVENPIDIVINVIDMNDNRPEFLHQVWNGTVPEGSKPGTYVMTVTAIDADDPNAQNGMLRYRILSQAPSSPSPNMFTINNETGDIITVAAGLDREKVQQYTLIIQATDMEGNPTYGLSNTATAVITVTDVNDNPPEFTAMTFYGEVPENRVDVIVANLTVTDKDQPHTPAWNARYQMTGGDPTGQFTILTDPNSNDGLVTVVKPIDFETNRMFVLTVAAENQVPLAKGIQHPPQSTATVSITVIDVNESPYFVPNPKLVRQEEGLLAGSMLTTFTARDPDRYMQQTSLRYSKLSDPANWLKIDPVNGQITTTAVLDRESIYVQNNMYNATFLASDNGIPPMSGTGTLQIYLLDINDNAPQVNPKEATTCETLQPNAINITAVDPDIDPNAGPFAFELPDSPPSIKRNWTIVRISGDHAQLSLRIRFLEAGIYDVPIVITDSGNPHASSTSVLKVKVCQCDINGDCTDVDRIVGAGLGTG

B1: Ncad-Fc protein (chicken N-cadherin ectodomain fused to the Fc fragment of mouse IgG2b) (Fc fusion, UniProt P10288 165-729, looked up)
chain: T1 sequence (P10288 165-729 limits assumed)
notes: extracellular domain; Captured on magnetic Dynabeads Protein A for the bead-bead aggregation assay; also called N-cadherin coated Dynabeads; not shown: Fc fragment of mouse IgG2b

One series deals with T1, Ncad-Fc protein (chicken N-cadherin ectodomain fused to the Fc fragment of mouse IgG2b). Description: Ncad-Fc bead-bead aggregation assay. The class given is biochemical. The note with it: N-cadherin coated Dynabeads, 30 minutes to 1 hour at 37° C. How it is done:
Compounds of the invention were assayed according to the following procedures.
(§1) 10 μl of magnetic Dynabeads® Protein A (Prod. No. 100.01) were pipetted into a 1.5 ml eppendorf tube and washed with 0.5 ml of PBS (1×), 0.1% Tween 20, and 2 mM EGTA using the Dynal MPC-S Magnetic Particle Concentrator. Supernatant was aspirated, the magnet was removed and beads were washed once more with same buffer using the Dynal MPC-S Magnetic Particle Concentrator. Following this supernatant was once again removed and the beads were resuspended in 10 μl of PBS (1×), 0.1% Tween 20, and 2 mM EGTA buffer.
(§2) An equal 10 ul volume of Ncad-Fc protein (0.25 mg/10 μl, chicken N-cadherin ectodomain fused to the Fc fragment of mouse IgG2b) or human Fc (Jackson Immunoresearch, concentration 2.3 mg/ml) suspended in PBS (1×), 0.1% Tween 20, 2 mM EGTA and 1% BSA (Sigma, Prod. No. A0281) was added and incubated for 1-2 hours at room temperature on the Vortex Genie 2, followed by three washes in 0.5 ml of the same buffer. The beads were then resuspended in 80 μl PBS (1×) plus 1% BSA (dilution 1/8) and kept on ice.
The aggregation assay was performed in duplicates in 12 well/6 mm slides (CEL-LINE/ERIE SCIENTIFIC CO. Prod. No. 10-103). Experimentation was conducted in eppendorf tubes containing […] of DMEM medium ([…] glucose, Gibco Prod. No. 21 885-025)+10% Fetal Calf Serum (FCS) containing an N-cadherin inhibitor or calcium chelator (EDTA, EGTA) with the addition of 4 μl of N-cadherin coated Dynabeads®. The resulting bead solutions were gently mixed on ice followed by 50 μl of solution deposited per well.
Slides were incubated for 30 minutes to 1 hour at 37° C. and 5% CO2. After incubation two images per well were recorded on an inverted microscope (Nikon Diaphot) at 20× magnification, with an 8 Volt illumination using a Nikon D100. Images were analyzed using the Bead Counting software program from Metamorph (Meta Imaging Series 6.2r6).
In this assay, in the absence of inhibitor, the beads bind to each other and aggregate due to dimerization of the N-cadherin molecules on the surfaces of the beads. Accordingly, compounds effective for disrupting N-cadherin-mediated cell adhesion can be identified on the basis of whether they disrupt bead-bead aggregation in this assay.
Turning to `Cc1nnc(Cc2ccccc2)[nH]1` [compound 10-1, 3-Benzyl-5-Methyl-4H-[1,2,4]Triazole], the “active in Ncad-Fc bead-bead aggregation assay (disrupt bead-bead aggregation)” value (shortened to “active … (disrupt bead-bead aggregation)”) is “active”.

Take `Cc1nnc(-c2ccncc2)[nH]1` [compound 67-1, 4-(5-Methyl-4H-[1,2,4]Triazol-3-Yl)-Pyridine]: the “active … (disrupt bead-bead aggregation)” value is “active”.

As for `COc1cccc(-c2nnc(C)[nH]2)c1` [compound 11-1, 3-(3-Methoxyphenyl)-5-Methyl-4H-[1,2,4]Triazole], the “active … (disrupt bead-bead aggregation)” value is listed as “active”.

For the molecule `Cc1nnc(-c2cccnc2)[nH]1` [compound 66-1, 3-(5-Methyl-4H-[1,2,4]Triazol-3-Yl)-Pyridine], the “active … (disrupt bead-bead aggregation)” value is recorded as “active”.

Consider `Cc1nnc(-c2cccc(Cl)c2)[nH]1` [compound 8-1, 3-(3-Chlorophenyl)-5-Methyl-4H-[1,2,4]Triazole], for which the “active … (disrupt bead-bead aggregation)” value is “active”.

Turning to `Cc1nnc(-c2ccccn2)[nH]1` [compound 65-1, 2-(5-Methyl-4H-[1,2,4]Triazol-3-Yl)-Pyridine], the “active … (disrupt bead-bead aggregation)” value is “active”.

Turning to `COc1ccc(-c2nnc(C)[nH]2)cc1` [compound 12-1, 3-(4-Methoxyphenyl)-5-Methyl-4H-[1,2,4]Triazole], the “active … (disrupt bead-bead aggregation)” value is “active”.

With `Cc1nnc(-c2cccs2)[nH]1` [compound 68-1, 3-Methyl-5-Thiophen-2-Yl-4H-[1,2,4]Triazole], the “active … (disrupt bead-bead aggregation)” value is listed as “active”.

As to `Cc1nnc(-c2ccc(C(C)(C)C)cc2)[nH]1` [compound 53-1, 3-(4-Tert-Butylphenyl)-5-Methyl-4H-[1,2,4]Triazole], the “active … (disrupt bead-bead aggregation)” value is listed as “active”.

For `CC(C)(C)c1ccc(-c2nnc(N)[nH]2)cc1` [compound 50-1, 5-(4-Tert-Butylphenyl)-4H-[1,2,4]Triazol-3-Ylamine], the “active … (disrupt bead-bead aggregation)” value is “active”.

`Cc1nnc(-c2ccccc2Cl)[nH]1` [compound 7-1, 3-(2-Chlorophenyl)-5-Methyl-4H-[1,2,4]Triazole]: the “active … (disrupt bead-bead aggregation)” value was “active”.

Regarding `Cc1cccc(-c2nnc(C)[nH]2)c1` [compound 5-1, 3-Methyl-5-M-Tolyl-4H-[1,2,4]Triazole], the “active … (disrupt bead-bead aggregation)” value is “active”.

Take `Cc1nnc(-c2ccc(Cl)c(Cl)c2)[nH]1` [compound 14-1, 3-(3,4-Dichlorophenyl)-5-Methyl-4H-[1,2,4]Triazole]: the “active … (disrupt bead-bead aggregation)” value was “active”.

On to `CCc1nnc(-c2ccc(C(C)(C)C)cc2)[nH]1` [compound 1-1, 3-(4-Tert-Butylphenyl)-5-Ethyl-4H-[1,2,4]Triazole], for which the “active … (disrupt bead-bead aggregation)” value is on record as “active”.

With `Cc1nnc(-c2ccc(Cl)cc2)[nH]1` [compound 9-1, 3-(4-Chlorophenyl)-5-Methyl-4H-[1,2,4]Triazole], the “active … (disrupt bead-bead aggregation)” value is reported as “active”.

A further series has as its system retinal explants on substrate protein (Human N-cadherin-Fc or Laminin). The series is described as follows: Culture of retinal explants and quantification of neurite outgrowth. The series is classed as cell-based, White Leghorn chick. To be noted: embryonic day 8 chick retina explants, examined approximately 20 hours after plating. An excerpt: Tissue culture dishes were coated with nitrocellulose and allowed to dry (Lagenaur and Lemmon, [citation?] 1987). Substrate protein (Human N-cadherin-Fc or Laminin) was spread across the central region of each dish. Retinal explant cultures were made according to a previously described procedure (Halfter, W. et al., Dev. Biol., 95:56-64, 1983; Drazba, J. and Lemmon, V., Dev. Biol., 138:82-93, 1990). In brief, embryonic day 8 (stage 32-34 according to Hamburger and Hamilton, [citation?] 1951) White Leghorn chick eyes were dissected and the retina was flattened with the photoreceptor side down onto black nitrocellulose filters that had previously been incubated in concanavalin A. The filter was then cut into strips perpendicular to the optic fissure. Strips were inverted onto substrate-coated culture dishes so that the gang lion cell layer was directly adjacent to the substratum. N-cadherin small molecule antagonists were diluted in the culture medium and added at the time of plating. Neurite outgrowth was examined at approximately 20 hours after plating.
Neurite outgrowth from retina explants was catalogued using a SPOT RT digital camera and image acquisition software. The length of the five longest neurites per explant were measured (Burden-Gulley, S. M. and Brady-Kalnay, S. M. J. Cell Biol., 144:1323-1336, 1999). To measure neurite density, the region of neurite outgrowth was outlined to define the region of interest and the neurites were highlighted using Metamorph software. Data from similar experimental conditions were combined, analyzed by Student's t test and plotted.
For the molecule `COc1ccc(-c2nnc(S)[nH]2)cc1` [compound 69-2], the inhibit neurite outgrowth entry was “inhibit neurite outgrowth”.

For `CC(C)(C)c1ccc(-c2nnc(C3CC3)[nH]2)cc1` [compound 22-1, 3-(4-Tert-Butylphenyl)-5-Cyclopropyl-4H-[1,2,4]Triazole], the inhibit neurite outgrowth result is “inhibit neurite outgrowth”.

Take `CC(C)c1nnc(-c2ccc(C(C)(C)C)cc2)[nH]1` [compound 21-1, 3-(4-Tert-Butylphenyl)-5-Isopropyl-4H-[1,2,4]Triazole]: the inhibit neurite outgrowth entry is recorded as “inhibit neurite outgrowth”.

As to `CC(C)(C)c1ccc(-c2nnc(C3CCC3)[nH]2)cc1` [compound 25-1, 3-(4-Tert-Butylphenyl)-5-Cyclobutyl-4H-[1,2,4]Triazole], the inhibit neurite outgrowth entry is listed as “inhibit neurite outgrowth”.

With `Cn1nc(-c2ccc(C(C)(C)C)cc2)nc1S` [compound 46-1, 5-(4-Tert-Butylphenyl)-2-Methyl-2H-[1,2,4]Triazole-3-Thiol], the inhibit neurite outgrowth entry is recorded as “inhibit neurite outgrowth”.

With `CC(C)(C)c1ccc(-c2nnc(C(F)F)[nH]2)cc1` [compound 57-1, 3-(4-Tert-Butylphenyl)-5-Difluoromethyl-4H-[1,2,4]Triazole], the inhibit neurite outgrowth result is given as “inhibit neurite outgrowth”.

Regarding `Cc1nnc(-c2ccc(C(C)(C)C)cc2)[nH]1` [compound 53-1, 3-(4-Tert-Butylphenyl)-5-Methyl-4H-[1,2,4]Triazole], the inhibit neurite outgrowth result is on record as “inhibit neurite outgrowth”.

Take `CC(C)(C)c1ccc(-c2nnc(Cc3ccccc3)[nH]2)cc1` [compound 26-1, 3-Benzyl-5-(4-Tert-Butylphenyl)-4H-[1,2,4]Triazole]: the inhibit neurite outgrowth entry is “inhibit neurite outgrowth”.

Take `Sc1nnc(-c2cccs2)[nH]1` [compound 69-4]: the inhibit neurite outgrowth entry was “inhibit neurite outgrowth”.

Turning to `CC(C)(C)c1ccc(-c2nnc(-c3cnccn3)[nH]2)cc1` [compound 28-1, 2-[5-(4-Tert-Butylphenyl)-4H-[1,2,4]Triazol-3-Yl]-Pyrazine], the inhibit neurite outgrowth result is “inhibit neurite outgrowth”.

On to `CCc1nnc(-c2ccc(C(C)(C)C)cc2)[nH]1` [compound 1-1, 3-(4-Tert-Butylphenyl)-5-Ethyl-4H-[1,2,4]Triazole], for which the inhibit neurite outgrowth result was “inhibit neurite outgrowth”.

As for `Cc1cnc(-c2ccc(C(C)(C)C)cc2)[nH]1` [compound 64-1, 2-(4-Tert-Butylphenyl)-5-Methyl-1H-Imidazole], the inhibit neurite outgrowth entry was “inhibit neurite outgrowth”.

Another series concerns the molecule itself. The series is described as follows: bead-bead aggregation assay, Ncad-Fc on Protein A Dynabeads, microscopy and bead counting.
Conditions: not given
How it is done:
as §1, §2
The aggregation assay was performed in duplicates in 12 well/6 mm slides (CEL-LINE/ERIE SCIENTIFIC CO. Prod. No. 10-103). […]
With B1, the binding result is reported as “binds”.

These data come from patent US20120022083A1, “SMALL MOLECULE MODULATORS OF CELL ADHESION” (ADHEREX TECHNOLOGIES, INC., priority 2008, published 2012).
